Experimental data as given in ChEMBL document CHEMBL1938267, “Capturing of the free cysteine residue in the ligand-binding site by affinity labeling of the ORL1 nociceptin receptor” (Bioorg Med Chem, 2011).
Calls of active or inactive are those of the source. The calls are words filed in the database; no cut-off is given here. Peptide text beside a SMILES is read from it. * marks the point of attachment. Npys = O=[N+]([O-])c1cccnc1S*

Columns and labels:
[1] = species on record: Rattus norvegicus; assay: Agonist activity at rat Galpha-fused ORL1 receptor at 10 uM by [35S]GTPgammaS binding assay relative to nociceptin; type: functional
[2] = tested on: COS-7; assay: Displacement of [3H]nociceptin from rat Galpha-fused ORL1 receptor expressed in african green monkey COS7 cells preincubated with 100 uM N-ethylmaleimide for 90 mins measured after 90 mins; type: cell-based
[3] = tested on: COS-7; assay: Displacement of [3H]nociceptin from rat Galpha-fused ORL1 receptor expressed in african green monkey COS7 cells preincubated with 5 uM Cys(Npys)-RYYRIK-NH2 for 90 mins measured after 90 mins; type: cell-based
[4] = Displacement of [3H]nociceptin from rat Galpha-fused ORL1 receptor expressed in african green monkey COS7 cells; type: cell-based; conditions: cos-7
[5] = species on record: Rattus norvegicus; assay: Antagonist activity at rat Galpha-fused ORL1 receptor assessed as reduction of receptor agonist nociceptin-induced [35S]GTPgammaS binding at 10 uM; type: functional
[6] = tested on: COS-7; assay: Ratio of NEM EC50 to compound EC50 for binding affinity to rat Galpha-fused ORL1 receptor expressed in african green monkey COS7 cells; type: cell-based
[7] = tested on: COS-7; assay: Binding affinity to rat Galpha-fused ORL1 receptor expressed in african green monkey COS7 cells at 5 uM after 90 mins; type: cell-based
[8] = Binding affinity to rat Galpha-fused ORL1 receptor expressed in african green monkey COS7 cells after 90 mins; type: cell-based; conditions: cos-7
[9] = species on record: Rattus norvegicus; assay: Agonist activity at rat Galpha-fused ORL1 receptor by [35S]GTPgammaS binding assay relative to nociceptin; type: functional
[10] = tested on: COS-7; assay: Binding affinity to rat Galpha-fused ORL1 receptor expressed in african green monkey COS7 cells at 100 uM after 90 mins; type: cell-based

Structure (SMILES) | Activity [1] | Activity [2] | Activity [3] | IC50 [4] | Activity [5] | Ratio EC50 [6] | Activity [7] | EC50 [8] | Activity [9] | Activity [10]
CC[C@H](C)[C@H](NC(=O)[C@H](CCCN=C(N)N)NC(=O)[C@H](Cc1ccc(O)cc1)NC(=O)[C@H](Cc1ccc(O)cc1)NC(=O)[C@H](CCCN=C(N)N)NC(C)=O)C(=O)N[C@@H](CCCCN)C(N)=O | 60% | Active |  |  |  |  |  |  |  | 
CC[C@H](C)[C@H](NC(=O)[C@H](CCCNC(=N)N)NC(=O)[C@H](Cc1ccc(O)cc1)NC(=O)[C@H](Cc1ccc(O)cc1)NC(=O)[C@H](CCCNC(=N)N)NC(=O)[C@@H](N)CSSc1ncccc1[N+](=O)[O-])C(=O)N[C@@H](CCCCN)C(N)=O (H-C(Npys)RYYRIK-NH2) | 5% |  | Active | 133 nM | Active | 23 | 60% | 1.9 µM | inactive | 
CC(C)C[C@H](NC(=O)[C@H](CCCCN)NC(=O)[C@H](CCCNC(=N)N)NC(=O)[C@H](C)NC(=O)[C@H](CO)NC(=O)[C@H](CCCCN)NC(=O)[C@H](CCCNC(=N)N)NC(=O)[C@H](C)NC(=O)CNC(=O)[C@@H](NC(=O)[C@H](Cc1ccccc1)NC(=O)CNC(=O)CNC(=O)[C@@H](N)Cc1ccccc1)[C@@H](C)O)C(=O)N[C@@H](C)C(=O)N[C@@H](CC(N)=O)C(=O)N[C@@H](CCC(N)=O)C(=O)O [NOCICEPTIN] |  | Active |  | 0.52 nM |  |  |  |  |  | 
CCN1C(=O)C=CC1=O [N-ETHYLMALEIMIDE] |  |  |  |  |  |  |  | 43.7 µM |  | 65%
